Laboratory results from patent US20100284925A1, “Small Molecule Intervention for Obesity” (priority 2006, published 2010).
Entries after “also recorded” stand apart in the source; their conditions may differ.

Tests used:
[1] = test system: PLTP promoter; assay: PLTP-promoter luciferase reporter in HepG2 and transgenic HepG2/PLTPpLuc cells; type: cell-based, human; conditions: for transactivation of PLTP promoter: luciferase reporter, HepG2 or HepG2/PLTPpLuc cells; for effect on transactivation of PLTP promoter by prieurianin: co-treatment with prieurianin, 200 nM staurosporine or 200 nM TSA
Description: FIG. 2A. A 1.5 Kb PLTP promoter fused to a luciferase reporter was transactivated by topotecan dose-dependently.
FIG. 2B. Activation of PLTP promoter by topotecan in HepG2 transgenic cells containing the PLTP-promoter luciferase reporter gene fused to the neomycin selectable marker cassette and stably transfected into HepG2 cells to generate the transgenic line (Top panel). Dose-dependent induction of PLTP promoter by topotecan (Bottom panel). Results are the means S.E. of three experiments after normalization with Renilla luciferase.
FIG. 3A. Dose-dependent transactivation of the PLTP promoter by prieurianin in the HepG2 transgenic cells. Results are the means S.E. of three experiments after normalization with Renilla luciferase.
FIG. 3B. […] 1, Control; 2. […] Results are the means±S.E. of triplicate experiments.
FIG. 11. Transactivation of PLTP promoter by cytotoxic and non-cytotoxic drugs. Survey of transactivation of the PLTP promoter by various cytotoxic and non-cytotoxic drugs in the HepG2 transgenic cells was conducted. Results are the means S.E. of three experiments.
FIG. 12. Effects of trichostatin A (TSA) on transactivation of PLTP promoter by prieurianin. Dose response activation of PLTP promoter by prieurianin either in the presence or the absence of 200 nM TSA. Results are the means S.E. of three experiments.
To determine whether non-cytotoxic small molecules could induce PLTP expression, the inventor herein subcloned the PLTP-promoter luciferase reporter into a vector containing a neomycin (G418)-resistance selectable marker and generated a transgenic HepG2 cell line, which harbors the PLTP-promoter luciferase reporter, by stable gene transfection and selection with G418.
The transgenic cells were then screened with a library of small molecules derived from natural products.

[2] = test system: NFκB; assay: NFκB-response element luciferase reporter in L1 preadipocytes; type: cell-based; conditions: prieurianin 2 μM
[3] = test system: differentiated NIH-3T3/L1 adipocytes; assay: Loss of lipid-positive differentiated adipocytes (oil red O, A510; Nile Red); type: cell-based; conditions: 1 μM bufalin, Nile Red
Method: FIG. 8. Prieurianin induced loss of differentiated adipocytes. NIH-3T3/L1 preadipocytes were induced into differentiation. Five days following differentiation, cells were treated with various concentrations (0.5, 1, and 2 μM) of prieurianin for an additional five days and followed by staining with oil red O. Micrographs were obtained from representatives of triplicate experiments. Isopropanol extracts of positively stained cells were quantified spectrophotometrically at 510 nm as shown in histogram on the right. Results are means±S.E. of triplicate experiments.
(§1) FIG. 19. Effects of bufalin on preadipocyte differentiation, and dedifferentiation/delipidation in adipo-cytes. NIH-3T3/L1 cells were induced into differentiation and simultaneously treated with either 1 μM of bufalin or 2 μM of prieurianin. Differentiated cells were stained with Nile Red. Alternatively, preadipocytes were induced into differentiation and five days following differentiation, cells were treated with either 1 μM of bufalin or 2 μM of prieurianin for an additional five days and followed by staining with Nile Red. Stained cells were evaluated by fluorescence microscopy.
To assess whether prieurianin has any effect on the differentiated adipocytes, the preadipocytes were allowed to differentiate into adipocytes and then were further cultured for about five days before treating the adipocytes with prieurianin for an additional five to six days, followed by oil red O staining for the presence of lipid accumulating adipocytes.

[4] = test system: C/EBPβ; assay: C/EBPβ response element luciferase reporter in L1 preadipocytes; type: cell-based; conditions: prieurianin 2 μM
Method: (§2) FIG. 18. Effects of prieurianin on C/EBPα and β and PPARγ mediated transcription in adipogenesis. Response elements corresponding to C/EBPα and β and PPARγ are cloned into the pGL3 basic luciferase reporter plasmid. L1 preadipocytes were contransfected with the reporter plasmid either in the presence or the absence of the corresponding transcription factors cloned into expression vector, followed by treatment with 2 μM of prieurianin. Cells were harvested for luciferase assay 15-24 hrs later. Results are means±S.E. of triplicate experiments.

[5] = test system: NIH-3T3/L1 preadipocytes; assay: Differentiation of NIH-3T3/L1 preadipocytes into adipocytes (oil red O or Nile Red staining); type: cell-based
Method: FIG. 7. […] NIH-3T3/L1 cells were induced into differentiation and simultaneously treated with 2 μM of prieurianin. Differentiated cells were stained with oil red O—FIG. 7A, undifferentiated control.
Histogram represents A510 nm absorbance of oil red O stain isopropanol extracts from cells. Results are means±S.E. of triplicate experiments.
as §1
To determine the effects of prieurianin on the differentiation of preadipocytes to adipocytes, the NIH-3T3/L1 preadipocytes were treated with or without the drug at the same time when induction of differentiation was initiated.

[6] = test system: PPARγ; assay: PPARγ response element luciferase reporter in L1 preadipocytes; type: cell-based; conditions: prieurianin 2 μM
Method: as §2

[7] = test system: C/EBPα; assay: C/EBPα response element luciferase reporter in L1 preadipocytes; type: cell-based; conditions: prieurianin 2 μM
Method: as §2

[8] = test system: phospholipid transfer protein (PLTP) gene expression; assay: PLTP gene expression in HepG2 cells by DNA microarray and Northern blot; type: cell-based, human
Method: The patent or application file contains at least one drawing executed in color. Copies of this patent with color drawings will be provided by the United States Patent and Trademark Office upon request and payment of necessary fee. FIG. 1. Pharmacological response of HepG2 cells to topotecan by DNA Microarray. HepG2 cells were treated with 500 nM for various times (A) or with various concentrations of topotecan (B) for 24 hrs. Dendrogram of the expression changes of the phospholipid transfer protein (PLTP) is shown. (C) Induction of PLTP expression by topotecan was confirmed independently by Northern blot analysis.
The mechanisms of resistance to topoisomerase (Top) 1 inhibitors by expression genomics were studied by conducting time-course and dose-response experiments by DNA microarray to investigate the pharmacological response of the human hepatocellular blastoma HepG2 cells to topotecan, which were either treated with 500 nM of topotecan (a cytotoxic anticancer agent) for various times (0, 1, 3, 5, 10, 15, and 24 hrs), or with various doses of topotecan (0, 10, 50, 100, 300, 500, and 1000 nM) for 24 hrs.
Activation of PLTP expression by topotecan was temporally regulated and dose dependent, with a late onset, peaking at 24 hrs with an approximately 20-fold induction.

[9] = test system: PLTP; assay: Serum PLTP protein by Western blot in normal C57BL/6J mice; type: in vivo; conditions: normal C57BL/6J mice, 0, 2, 5 and 10 mg/kg
Method: (§3) FIG. 10. Release of adiponectin and PLTP by preadipocytes and adipocytes, and in serum of normal mice. Preadipocytes (B and D) were treated with 2 μM of prieurianin and media collected after 36 hrs for Western blot analysis of either adiponectin (A and B) or PLTP (C and D). Alternatively, five days following differentiation, conditioned media of adipocyets (A and C) were collected for Western analysis. E. Serum of normal C57BL/6J mice given prieurianin or topotecan (0, 2, 5, and 10 mg/kg) was analyzed by Western blot for PLTP.

[10] = test system: adiponectin; assay: Adiponectin release into conditioned media (Western blot); type: cell-based; conditions: NIH-3T3/L1 preadipocytes, approximately 36 hrs after treatment
Method: as §3
Adipose tissue contains various types of cells including preadipocytes and adipocytes. Also, preadipocytes secrete factors involved in their own differentiation. Once differentiated, the mature adipocytes acquire the ability to communicate distally with other organs including brain, liver, and skeletal muscle and locally with other cells such as preadipocytes, endothelial cells and monocytes/macrophages by secreting leptin and adiponectin. In addition, anti-adipogenic cytokines prevent the release of adiponectin by preadipocytes. Thus, the production of adiponectin and PLTP by preadipocytes and adipocytes was assessed.

[11] = test system: PLTP; assay: PLTP release into conditioned media (Western blot); type: cell-based
Method: as §3
The expression and secretion of PLTP by preadipocytes and adipocytes was also assessed. Thus, preadipocytes produced and released both the low and the high molecular weight forms of PLTP, while adipocytes secreted only the low molecular weight form (see FIGS. 10C and 10D) into the conditioned media.

## CCCCCCCCCCCCCC(=O)O[C@@H]1[C@@H](C)[C@@]2(O)[C@@H](C=C(CO)C[C@]3(O)C(=O)C(C)=C[C@@H]23)[C@@H]2C(C)(C)[C@]12OC(C)=O [TPA, 12-O-tetradecanoylphorbol-13-acetate]
[1]
  transactivation of PLTP promoter: induced PLTP promoter

## C[C@]12CC[C@H](O)C[C@H]1CC[C@@H]1[C@@H]2CC[C@]2(C)[C@@H](c3ccc(=O)oc3)CC[C@]12O [bufalin, reference compound]
[2]
  NFκB-response element mediated transcription: nor did it modulate the transcriptional activity
[3]
  de-differentiation or delipidation in adipocytes: neither causes de-differentiation or delipidation in adipocytes
[4]
  transactivation potential of C/EBPβ: nor did it modulate the transcriptional activity
[5]; 1 μM bufalin, Nile Red
  differentiation of preadipocytes: did not, however, inhibit the differentiation of preadipocytes
[6]
  transactivation potential of PPARγ: nor did it modulate the transcriptional activity
[7]
  transactivation potential of C/EBPα: nor did it modulate the transcriptional activity
[1]
  transactivation of PLTP promoter: stimulates the PLTP promoter like prieurianin

## CN[C@@H]1C[C@H]2O[C@@](C)([C@@H]1OC)n1c3ccccc3c3c4c(c5c6ccccc6n2c5c31)C(=O)NC4 [staurosporine]
[5]; data not shown
  differentiation, staurosporine alone: no observable effects on differentiation
[1]; co-treatment with TPA
  effect on TPA activation of PLTP promoter: abolished
[1]
  effect on transactivation of PLTP promoter by prieurianin: strongly inhibited PLTP transactivation by prieurianin; also recorded: inhibited

## CC[C@@]1(O)C(=O)OCc2c1cc1n(c2=O)Cc2cc3c(CN(C)C)c(O)ccc3nc2-1 [topotecan, reference compound]
[8]; HepG2 cells
  PLTP expression by Northern blot analysis: induced by topotecan dose-dependently
[8]; HepG2 cells, DNA microarray, peaking at 24 hrs
  induction of PLTP expression: approximately 20 fold
[8]; time-course microarray analysis
  onset of PLTP induction following treatment: 12 to 15 h
[9]
  serum PLTP protein levels: a rise in the serum PLTP protein levels
[10]
  adiponectin release by preadipocytes: significantly inhibited the production of adiponectin
[1]
  transactivation of PLTP promoter: transactivated by topotecan dose dependently
[11]; adipocytes
  release of PLTP by adipocytes: induced an increase in the release of only the low molecular weight form of PLTP
[11]; preadipocytes
  release of PLTP by preadipocytes: release of the low but not the high molecular form of PLTP was reduced

## CC(/C=C/C(=O)NO)=C\[C@@H](C)C(=O)c1ccc(N(C)C)cc1 [trichostatin A]
[1]
  effect on transactivation of PLTP promoter by prieurianin: though modest, potentiated the transactivation of PLTP promoter activity by prieurianin
